# “Also recorded” adds a separate entry of the source.
# Legend:
# xanthine oxidase = xanthine oxidase (Homo sapiens, UniProt P47989); assay: Control reaction for direct inhibition of xanthine oxidase (urate production at 290 nm); format: biochemical; conditions: 6 and 11 μM C7
# Method: Superoxide dismutase (SOD) activity was assayed by following the inhibition of the reduction of an electron acceptor molecule in the presence of the free-radical generating system xanthine/xanthine oxidase (McCord et al. (1973) Superoxide and Superoxide Dismutase in “Oxidases and Related Redox Systems, vol. I, King et al. eds., University Park press, Baltimore, pp. 51-76). The assay mixture consisted of 50 mM sodium phosphate, pH 7.8, 120 μM xanthine, 0.2 units/ml xanthine oxidase, with acceptor molecule and salen manganese compound, as indicated. Assays were conducted at 27±0.2° C. using a water-jacketed cell holder in a Beckman DU7400 spectrophotometer. In most cases, oxidized cytochrome c, at 0.13 mg/ml, was employed as acceptor and its reduction was monitored spectrophotometrically at 550 nm. In some experiments, nitroblue tetrazolium (NBT), at 80 μM, was substituted for cytochrome c as the acceptor. NBT reduction was also monitored at 550 nm. An estimated extinction coefficient for NBT reduction, 20,800 M^−1cm^−1, determined empirically by exhaustive reduction of NBT in the reaction mixture described above, was employed where indicated. This value agreed well with reported extinction coefficients for reduced tetrazolium dyes. […] Conversion of xanthine to urate was calculated using ε290's of […] for urate and 4050 M^−1cm^−1 for xanthine. […]
# [1] = test system: isolated iron-overloaded rat hearts; assay: Isolated iron-overloaded rat hearts submitted to ischemia and reperfusion (function and electron microscopy)
# Method: Rats received an intramuscular injection of 0.25 ml of an iron-dextran solution (100 g iron hydroxide, 99 g dextran, water up to 1 l) every third day during a 5-week period to achieve a significant iron overload in cardiac tissue. At the end of this treatment, rats were anesthetized with sodium pentobarbital (40 mg/kg) and heparin (1,000 IU/kg) was administered via a femoral vein. Hearts were then removed and rapidly perfused through the aorta according to the technique described by Langendorff [Langendorff, O., Pflügers Arch. 61: 291, 1895] at a constant flow rate of 11 ml/minute. The perfusion fluid was a modified Krebs-Henseleit buffer containing (in mmol/l): NaCl 118, KCl 5.9, NaHCO3 25, MgCl2 1.2, NaH2PO4 0.6, CaCl2 2.4, Glucose […]. pH was maintained at 7.4±0.05 when the perfusion medium was saturated with O2—CO2 (95%-5%) at 37° C. The perfusion apparatus was fully thermostated such that the temperature of the perfusion medium was 37.0±0.5° C. when it reached the aorta. An ultra-thin balloon was inserted in the left ventricle immediately after the initiation of aortic perfusion and was inflated so as to obtain an end-diastolic pressure of 5 mm Hg. A 15 minute stabilization period was initiated immediately following balloon placement. At the end of this period, systolic and diastolic ventricular pressures and heart beat rate (HR) were recorded through a pressure transducer linked to the ventricular balloon. Left Ventricular Developed Pressure (LVDP) was calculated by the difference between systolic and diastolic pressure and the product HR×LVDP was taken as an index of oxygen consumption. Hearts were then subjected to a 15 minute total global normothermic ischemia, followed by 15 minutes of reperfusion with the perfusion medium used initially. During this 15 minute reperfusion, heart rate, and diastolic and systolic pressures were monitored. Early ventricular fibrillations were analyzed 1 min. after the start of the reperfusion.
# Three experimental groups were studied.
# After the 15 minute reperfusion, 3 hearts in each group were prepared for electron microscopy by perfusion with 2.5% glutaraldehyde. Ultra-thin slices (500-600 Å thickness) were examined.
# Mitochondria were classified into Type A (normal), Type B (swollen, unbroken), and Type C (ruptured membranes). Sarcomeres were classified into Type A (normal) and Type B (contacted and/or necrosis). The results are expressed as percentages.
# [2] = C7 inactivation in H2O2, HPLC; format: physicochemical; conditions: 100 μM C7, 1 mM H2O2, with 1 mM ABTS
# Method: Where indicated, 1 mM ABTS was also present. Components were mixed and, after various incubations times, a 30 μl aliquot was injected onto the HPLC. The mixtures were chromatographed on an octadecyl-silica column using a mobile phase consisting of 60% methanol:40% 0.1 M Nacl and a flow rate of 1 ml/min. […] A third component, with a retention time of 4.8 min, was detectable under some conditions; its appearance and disappearance was monitored but it was not further analyzed. In this system, ABTS and its oxidized product had retention times of 3.4 and 3.1-min, respectively, well resolved from the peaks of interest. Absorbance spectra collected during each run allowed the identity of C7 and salicylaldehyde to be verified. All peaks were integrated based upon their absorbance at 240 nm. The results are expressed as the percentage of maximum peak area. […] For the two putative breakdown products, this is equivalent to the largest peak observed during the course of the ˜2000 sec incubation period.
# [3] = Catalase activity, decomposition of hydrogen peroxide monitored at 240 nm (Example 1); format: biochemical; conditions: Example 1, H2O2 decomposition at 240 nm
# Method: Catalase activity was measured using a spectrophotometric method in which the decomposition of hydrogen peroxide is monitored at 240 nm according to the method of Aebi et al. (1984) Methods Enzymol. 105: 121, incorporated herein by reference. One unit of catalase activity is defined as the amount of enzyme (or salen-metal complex) required to decompose 1 μmole of hydrogen peroxide in one minute.
# Rats = assay: Rat model for stroke, Middle Cerebral Artery occlusion; format: in vivo; conditions: single intravenous injection 3 hr after MCA occlusion
# Method: (§1) Rats were subjected to a Middle Cerebral Artery (MCA) Occlusion model involving permanent occlusion of the parietal branch of the left middle cerebral artery and temporary (60 min) occlusion of the common carotid arteries. As indicated, rats received a single intravenous injection of vehicle (Control), or C40 at 3 hr after the MCA was occluded. Twenty-one hr after MCA occlusion, brains were removed, sectioned, and stained with the viability dye TTC (2,3,5-triphenyltetrazolium chloride). The stained sections were photographed and the volumes of infarcted (unstained) and viable (red stained) brain tissue quantitated by image analysis.
# as §1, with “occlusion” for “Occlusion”
# [4] = 1 minute after reperfusion, DMTU 10 mM, C7 50 μM
# [5] = 15 minutes after reperfusion, DMTU 10 mM, C7 50 μM
# [6] = Before ischemia, DMTU 10 mM, C7 50 μM
# [7] = electron microscopy after 15 minute reperfusion
# Sequence of xanthine oxidase (P47989 whole entry, species assumed): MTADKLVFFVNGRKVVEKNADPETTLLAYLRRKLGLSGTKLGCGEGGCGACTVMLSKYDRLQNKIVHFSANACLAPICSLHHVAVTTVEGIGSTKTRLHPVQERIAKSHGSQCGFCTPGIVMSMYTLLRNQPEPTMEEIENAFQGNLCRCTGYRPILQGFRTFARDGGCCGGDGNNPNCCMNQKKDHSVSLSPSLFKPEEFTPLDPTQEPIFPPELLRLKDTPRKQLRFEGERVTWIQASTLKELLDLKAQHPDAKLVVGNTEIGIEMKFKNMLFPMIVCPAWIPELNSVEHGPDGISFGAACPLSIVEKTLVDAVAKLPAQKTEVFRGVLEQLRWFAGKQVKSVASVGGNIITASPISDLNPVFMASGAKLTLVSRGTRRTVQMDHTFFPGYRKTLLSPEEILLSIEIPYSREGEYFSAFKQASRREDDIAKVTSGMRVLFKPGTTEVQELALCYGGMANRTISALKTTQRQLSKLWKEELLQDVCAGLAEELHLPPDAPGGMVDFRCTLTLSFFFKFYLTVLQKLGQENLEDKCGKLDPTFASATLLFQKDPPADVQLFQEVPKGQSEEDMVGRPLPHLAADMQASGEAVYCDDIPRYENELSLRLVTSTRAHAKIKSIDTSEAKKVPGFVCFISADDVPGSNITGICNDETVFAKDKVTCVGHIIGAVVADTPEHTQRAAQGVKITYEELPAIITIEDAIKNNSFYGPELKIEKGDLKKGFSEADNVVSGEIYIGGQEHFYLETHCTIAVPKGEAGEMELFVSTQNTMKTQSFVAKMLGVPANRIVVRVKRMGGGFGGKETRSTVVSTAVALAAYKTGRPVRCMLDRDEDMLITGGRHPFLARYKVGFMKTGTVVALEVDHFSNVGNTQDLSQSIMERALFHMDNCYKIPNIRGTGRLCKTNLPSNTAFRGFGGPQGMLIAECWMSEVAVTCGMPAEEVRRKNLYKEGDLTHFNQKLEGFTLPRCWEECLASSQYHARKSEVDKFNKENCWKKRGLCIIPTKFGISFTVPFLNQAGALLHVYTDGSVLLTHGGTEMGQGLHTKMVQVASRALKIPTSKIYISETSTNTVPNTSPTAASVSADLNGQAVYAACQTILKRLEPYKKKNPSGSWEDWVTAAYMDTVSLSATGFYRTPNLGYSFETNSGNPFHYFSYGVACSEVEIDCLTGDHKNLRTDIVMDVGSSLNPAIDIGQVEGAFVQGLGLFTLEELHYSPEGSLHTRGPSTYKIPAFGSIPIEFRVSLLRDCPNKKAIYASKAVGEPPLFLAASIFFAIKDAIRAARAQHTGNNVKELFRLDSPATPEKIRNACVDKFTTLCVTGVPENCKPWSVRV
smiles,measurement,setting,value
[Cl][Mn]1[O]c2ccccc2C=NCCN=Cc2ccccc2[O]1 [Compound C7],effect on xanthine oxidase activity,xanthine oxidase,no effect; also recorded: without affecting
same,DP,[1]; [4],5.8 ± 0.5#± mm Hg
same,HR,[1]; [4],130 ± 13 beats/min
same,HR × LVDP,[1]; [4],9.9 ± 0.8#± ×10.3
same,SP,[1]; [4],72 ± 8 mm Hg
same,"VF, number of hearts exhibiting episodes of ventricular fibrillation",[1]; [4],2/8
same,DP,[1]; [5],8.3 ± 0.6 mm Hg
same,HR,[1]; [5],241 ± 15 beats/min
same,SP,[1]; [5],92 ± 15 mm Hg
same,DP,[1]; [6],5.4 ± 0.3 mm Hg
same,HR,[1]; [6],278 ± 7 beats/min
same,HR × LVDP,[1]; [6],23.5 ± 0.9 ×10.3
same,SP,[1]; [6],90 ± 2 mm Hg
same,protection of hearts from ischemia/reoxygenation damage,[1]; C7 50 μM,effectively protected hearts
same,Mitochondria Type A (normal),[1]; [7],31.0#± %
same,Mitochondria Type C (ruptured membranes),[1]; [7],53.8#± %
same,Sarcomeres Type A (normal),[1]; [7],60.6#± %
same,Sarcomeres Type B (contacted and/or necrosis),[1]; [7],39.4#± %
same,C7 peak disappeared rapidly,[2],about 20%
same,C7 persisting for the ~2000 sec incubation,[2],80%
same,Catalase Activity,[3],200 units/mM
COc1cccc2c1[O][Mn]([Cl])[O]c1c(cccc1OC)C=NCCN=C2 [Compound C40],"protection, infarct volume",Rats,protective
